Results taken from US9732047B2, “N-alkoxyamide conjugates as imaging agents” (Lantheus Medical Imaging, Inc., priority 2008, dated 2017).
Read-outs that look alike come from different tables or passages of the source.

What was measured:
[1] = test system: Aorta bearing atherosclerotic plaque; assay: Ex-vivo blood vessel binding assay; set-up: species or system New Zealand white rabbits; details: 153Gd-labeled compound 0.135 μCi in PBS, 2 h at 37° C., plaque-bearing rabbit aorta sections; percentage of initial activity
Method: Aorta bearing atherosclerotic plaque was obtained from New Zealand white rabbits that were balloon stripped along the abdominal aorta and placed on a high fat diet (0.5% cholesterol) for 16-22 weeks. Vascular injury was produced with a 4-F Fogarty catheter along the abdominal aorta and right iliofemoral artery. This procedure generates an accelerated complex lesion development with a lipid rich core covered by a fibrous cap in rabbits. Harvested aorta sections (0.5 cm) were incubated with 0.135 μCi of ^153Gd-labeled compound diluted in phosphate buffered saline (450 μL) for 2 h at 37° C. The supernatant was removed and analyzed by HPLC to assay compound stability. The tissue section was then washed with phosphate buffered saline (3×10 mL), then resuspended (10 mL) and incubated at 37° C. an additional 1 h. The supernatant was then removed, the washing process repeated and the tissue finally counted on a gamma counter. The amount of compound bound to the tissue was determined as a percentage of the initial activity according to the following formula: […]

aorta [2] = details: 60 min post injection; for aorta uptake (% ID/g): ApoE mice on high-fat diet 35-42 weeks, 0.3-0.4 mCi/kg bolus via tail vein; for aorta:blood / aorta:heart: ApoE mice, uptake ratio
Method: The apolipoprotein E (ApoE) knockout mouse is a model of hypercholesterolemia that develops atherosclerotic lesions in the brachiocephalic artery, the aortic arch and the abdominal aorta. Mice were fed a high-fat diet to accelerate plaque formation and compounds were tested in the mice between 35-42 weeks on diet. Test compounds were administered at 0.3-0.4 mCi/kg to anesthetized mice in a single, bolus injection via the tail vein. Blood samples were collected via the tail between 0-30 min post injection for pharmacokinetic analysis and mice were euthanized by CO2 at 60 min for tissue harvesting. The aorta was first flushed with saline through the left ventricle exiting via the femoral vein then removed from the heart to the renal bifurcation; additional biological samples were also collected (blood, muscle, liver, kidney, bile, urine, heart, femur, reproductive organ, lung, spleen and innominate artery). All samples were weighed and assayed for radioactivity; uptake is expressed as a percentage of injected dose per gram of tissue (% ID/g).

aorta [3] = details: 60 min post injection; for aorta (% ID/g ± SD): 0.01-0.05 mCi/kg bolus via marginal ear vein
Method: Atherosclerosis was induced in New Zealand White male rabbits (3 kg) with aortic balloon endothelial injury (vide supra) followed by feeding a 0.5% cholesterol diet for 22 weeks. Test compounds were administered at 0.01-0.05 mCi/kg to anesthetized rabbits in a single, bolus injection via the marginal ear vein. Blood samples were collected from the central ear artery at 0, 2, 5, 7, 10, 15, 30 and 60 min post injection. Rabbits were euthanized at 60 min post injection for tissue harvesting (blood, muscle, bile, urine, kidney, liver, spleen, heart, lung, colon, small intestine, stomach, testes and in some cases, sternum, ligament and right ear). Abdominal aorta (upper, middle, and lower) and left and right femoral arteries were also collected. All samples were weighed and assayed for radioactivity; uptake is expressed as percentage of injected dose per gram of tissue (% ID/g).

[4] = control rabbit (non-plaque bearing)

SMILES | % bound [1] [%] | aorta uptake (% ID/g) (aorta [2]) | aorta:blood (aorta [2]) | aorta:heart (aorta [2]) | aorta (% ID/g ± SD) (aorta [3]; [4]) [% ID/g] | aorta:blood (aorta [3]; control rabbit) | aorta:heart (aorta [3]; control rabbit) | aorta (% ID/g ± SD) (aorta [3]; plaque rabbit) [% ID/g] | aorta:blood (aorta [3]; plaque rabbit) | aorta:heart (aorta [3]; plaque rabbit)
N[C@H](Cc1ccc2ccccc2c1)C(=O)NOCc1ccc(CNC(=O)CN2CCN(CC(=O)[O-])CCN(CC(=O)[O-])CCN(CC(=O)[O-])CC2)cc1.[153Gd+3] [Example 60] | 30.9 | 18.4 ± 2.4 | 9.8 | 25.2 | 0.187 ± 0.022 | 3.8 | 6.4 | 0.108 ± 0.012 | 2.4 | 4.0
CONC(=O)C(CCc1ccccc1)NCc1ccc(CNC(=O)CN2CCN(CC(=O)[O-])CCN(CC(=O)[O-])CCN(CC(=O)[O-])CC2)cc1.[153Gd+3] (centres unmarked) [Example 52] | 6.9 | 6.1 ± 1.2 | 2.0 | 9.2 |  |  |  |  |  | 
N[C@H](Cc1ccc(CNC(=O)CN2CCN(CC(=O)[O-])CCN(CC(=O)[O-])CCN(CC(=O)[O-])CC2)cc1)C(=O)NOCc1ccccc1.[153Gd+3] [Example 55] |  | 3.0 ± 2.3 | 1.0 | 8.8 |  |  |  |  |  | 
CONC(=O)[C@H](N)Cc1ccc(CNC(=O)CN2CCN(CC(=O)[O-])CCN(CC(=O)[O-])CCN(CC(=O)[O-])CC2)cc1.[153Gd+3] [Example 54] |  | 2.5 ± 0.5 | 1.2 | 5.3 |  |  |  |  |  | 
[153Gd+3].[NH3+][C@H](Cc1c[nH]c2ccccc12)C(=O)NOCCCc1ccc(CNC(=O)CN(CCN(CC(=O)[O-])CC(=O)[O-])CCN(CC(=O)[O-])CC(=O)[O-])cc1 [Example 43] | 27.1 | 6.0 ± 1.7 | 2.7 | 9.0 |  |  |  |  |  | 
[153Gd+3].[NH3+][C@H](CCc1ccccc1)C(=O)NOCc1ccc(CNC(=O)CN(CCN(CC(=O)[O-])CC(=O)[O-])CCN(CC(=O)[O-])CC(=O)[O-])cc1 [Example 37] | 12.8 | 10.4 ± 1.4 | 4.2 | 16.2 |  |  |  | 0.087 ± 0.010 | 2.1 | 4.6
[153Gd+3].[NH3+][C@H](CCc1ccccc1)C(=O)NOCCCc1ccc(CNC(=O)CN(CCN(CC(=O)[O-])CC(=O)[O-])CCN(CC(=O)[O-])CC(=O)[O-])cc1 [Example 44] | 27.3 | 8.4 ± 0.2 | 3.2 | 12.5 |  |  |  |  |  | 
N[C@H](CCc1ccccc1)C(=O)NOCc1ccc(CNC(=O)CN2CCN(CC(=O)[O-])CCN(CC(=O)[O-])CCN(CC(=O)[O-])CC2)cc1.[153Gd+3] [Example 38] | 19.1 | 11.6 ± 0.8 | 5.5 | 20.5 | 0.196 ± 0.023 | 5.1 | 11.0 | 0.103 ± 0.002 | 2.4 | 5.1
CC(C)C[C@@H]([NH3+])C(=O)NOc1ccc(CNC(=O)CN(CCN(CC(=O)[O-])CC(=O)[O-])CCN(CC(=O)[O-])CC(=O)[O-])cc1.[153Gd+3] [Example 46] | 0.9 | 0.9 ± 0.2 | 1.1 | 4.9 |  |  |  |  |  | 
[153Gd+3].[NH3+][C@H](Cc1ccc(-c2ccccc2)cc1)C(=O)NOCCCCCCNC(=O)CN(CCN(CC(=O)[O-])CC(=O)[O-])CCN(CC(=O)[O-])CC(=O)[O-] [Example 41] | 28.7 | 2.0 ± 0.1 | 7.2 | 20.4 |  |  |  |  |  | 
[153Gd+3].[NH3+][C@H](CCc1ccccc1)C(=O)NOCCc1ccc(CNC(=O)CN(CCN(CC(=O)[O-])CC(=O)[O-])CCN(CC(=O)[O-])CC(=O)[O-])cc1 [Example 50] | 24.2 | 10.4 ± 2.4 | 3.7 | 13.5 |  |  |  |  |  | 
[153Gd+3].[NH3+][C@H](Cc1ccccc1)C(=O)NOCc1ccc(CNC(=O)CN(CCN(CC(=O)[O-])CC(=O)[O-])CCN(CC(=O)[O-])CC(=O)[O-])cc1 [Example 58] | 7.3 | 6.1 ± 0.2 | 6.5 | 17.9 |  |  |  |  |  | 
CC(C)C[C@@H]([NH3+])C(=O)NOCc1ccc(CNC(=O)CN(CCN(CC(=O)[O-])CC(=O)[O-])CCN(CC(=O)[O-])CC(=O)[O-])cc1.[153Gd+3] [Example 56] |  | 8.5 ± 1.8 | 5.5 | 21.2 |  |  |  |  |  | 
CC(C)C[C@@H]([NH3+])C(=O)NOCCCCCCNC(=O)CN(CCN(CC(=O)[O-])CC(=O)[O-])CCN(CC(=O)[O-])CC(=O)[O-].[153Gd+3] [Example 40] | 7.2 | 3.6 ± 0.3 | 3.4 | 8.4 |  |  |  |  |  | 
[153Gd+3].[NH3+][C@@H](CCc1ccccc1)C(=O)NOCc1ccc(CNC(=O)CN(CCN(CC(=O)[O-])CC(=O)[O-])CCN(CC(=O)[O-])CC(=O)[O-])cc1 [Example 39] | 15.8 | 6.1 ± 0.4 | 11.4 | 13.6 |  |  |  |  |  | 
[153Gd+3].[NH3+][C@H](CCc1ccccc1)C(=O)NOCCCCCCNC(=O)CN(CCN(CC(=O)[O-])CC(=O)[O-])CCN(CC(=O)[O-])CC(=O)[O-] [Example 45] | 14.4 | 9.0 ± 0.2 | 2.1 | 12.1 |  |  |  |  |  | 
[153Gd+3].[NH3+][C@H](Cc1cc2ccccc2[nH]1)C(=O)NOCc1ccc(CNC(=O)CN(CCN(CC(=O)[O-])CC(=O)[O-])CCN(CC(=O)[O-])CC(=O)[O-])cc1 [Example 61] | 19.9 | 19.3 ± 0.2 | 10.9 | 20.4 |  |  |  |  |  | 
[153Gd+3].[NH3+][C@H](CCc1ccccc1)C(=O)NOc1ccc(CNC(=O)CN(CCN(CC(=O)[O-])CC(=O)[O-])CCN(CC(=O)[O-])CC(=O)[O-])cc1 [Example 47] | 6.6 | 4.7 ± 0.4 | 0.7 | 4.8 |  |  |  |  |  | 
[153Gd+3].[NH3+][C@H](Cc1ccc(O)cc1)C(=O)NOCc1ccc(CNC(=O)CN(CCN(CC(=O)[O-])CC(=O)[O-])CCN(CC(=O)[O-])CC(=O)[O-])cc1 [Example 63] | 11.7 | 8.7 ± 0.4 | 6.0 | 13.0 |  |  |  |  |  | 
CC(C)C[C@@H](N)C(=O)NOCc1ccc(CNC(=O)CN2CCN(CC(=O)[O-])CCN(CC(=O)[O-])CCN(CC(=O)[O-])CC2)cc1.[153Gd+3] [Example 59] | 5.2 | 8.2 ± 1.3 | 3.7 | 15.4 |  |  |  |  |  | 
[153Gd+3].[NH3+][C@H](Cc1ccc2ccccc2c1)C(=O)NOCc1ccc(CNC(=O)CN(CCN(CC(=O)[O-])CC(=O)[O-])CCN(CC(=O)[O-])CC(=O)[O-])cc1 [Example 57] | 30.6 | 11.1 ± 0.3 | 5.0 | 17.8 |  |  |  |  |  | 
CC(C)C[C@@H]([NH3+])C(=O)NOCCc1ccc(CNC(=O)CN(CCN(CC(=O)[O-])CC(=O)[O-])CCN(CC(=O)[O-])CC(=O)[O-])cc1.[153Gd+3] [Example 49] | 9.1 | 4.9 ± 0.2 | 5.5 | 22.9 |  |  |  |  |  | 
O=C([O-])CN1CCN(CC(=O)[O-])CCN(CC(=O)NCc2ccc(CNC(CCc3ccccc3)C(=O)NOCc3ccccc3)cc2)CCN(CC(=O)[O-])CC1.[153Gd+3] (centres unmarked) [Example 53] |  | 1.5 ± 0.1 | 0.8 | 4.2 |  |  |  |  |  | 
[153Gd+3].[NH3+][C@H](CC1CCCCC1)C(=O)NOCCCCCCNC(=O)CN(CCN(CC(=O)[O-])CC(=O)[O-])CCN(CC(=O)[O-])CC(=O)[O-] [Example 42] | 17.9 | 8.1 ± 1.1 | 8.0 | 18.0 |  |  |  |  |  | 
